Experimental data from US7989454B2, “Leukotriene B4 inhibitors” (Hoffmann-La Roche Inc., priority 2002, dated 2011).

Test system: BLT1 and BLT2 receptors
Assay: Ca2+ flux assay for LTB4 antagonist assay (HL-60 FLIPR)
Type: cell-based, Human
Details: retinoic acid induced HL-60 cells endogenously expressing BLT1 and BLT2; inhibition of LTB4-induced Ca2+ flux; 30 min compound preincubation; read-out: LTB4 antagonism (HL-60 FLIPR)
Method: Ca^2+ Flux Assay for LTB4 Antagonist Assay
Human leukemia HL-60 cells endogenously expressing BLT1 and BLT2 receptors were cultured in RPMI-1640 medium supplemented with 20% fetal bovine serum, 2 mM glutamine, 100 U/mL penicillin and 100 ug/mL streptomycin.
Seventy two hours prior to experiment cells are counted using ViaCount reagent, centrifuged and resuspended at 2.0×10^5 cells/ml density with the complete growth media containing 1 μM retinoic acid (Sigma).
On a day of the experiment loading buffer (Calcium-3 Assay Kit, Molecular Devices) was prepared by dissolving the contents of one vial (Express Kit) into 500 ml Hank's Balanced Salt Solution containing 20 mM HEPES and 5 mM probenecid. Equal volume of the loading buffer was mixed with the replacement buffer (Hank's Balanced Salt Solution containing 20 mM HEPES, 0.05% BSA and 5 mM probenecid). Retinoic acid induced HL-60 cells were counted using ViaCount reagent, centrifuged and resuspended at 2.0×10^6 cells/mL density with the loading buffer/replacement buffer, dispensed into 384 well black/clear microplates (Falcon)(25 μL/well) and placed in a 37° C./5% CO2 incubator for 1 hour.
During the incubation, test compounds were prepared at 6× the desired concentration in HBSS/20 mM HEPES/0.05% BSA as well as LTB4 (Biomol) was prepared at 2.2× concentration in HBSS/20 mM HEPES/0.5% BSA buffer.
After the incubation, both the cell and compound plates were brought to the FLIPR and 5 μL of the diluted compounds were transferred to the cell plates by the FLIPR. Plates were then incubated for 30 min at room temperature. After the ½ hour incubation, plates were returned to the FLIPR and 25 μL of 2.2×LTB4 was added to the cell plates. During the assay, fluorescence readings were taken simultaneously from all 384 wells of the cell plate every 1.5 seconds. Five readings were taken to establish a stable baseline, then 25 μL (LTB4) of sample was rapidly and simultaneously added to each well of the cell plate. The fluorescence was continuously monitored before, during and after sample addition for a total elapsed time of 100 seconds. Responses (increase in peak fluorescence) in each well following agonist addition was determined. The initial fluorescence reading from each well, prior to ligand stimulation, was used a zero baseline value for the data from that well. The responses are expressed as % inhibition of the neutral control (neural control: wells that received buffer plus DMSO but no test compound).

SMILES	IC50 [nM]
O=C(O)CCCOc1cccc(CCCCCCOc2cc(C(=O)NC3CC3)cc(-c3ccc4c(c3)OCO4)c2)c1CCC(=O)O [Example 51, 4-[3-[6-(3-Benzo[1,3]dioxol-5-yl-5-cyclopropylcarbamoyl-phenoxy)-hexyl]-2-(2-carboxy-ethyl)-phenoxy]-butyric acid]	0.08
CC1CCCN(C(=O)c2cc(OCCCCCCc3cccc(OCCCC(=O)O)c3CCC(=O)O)cc(-c3ccc4c(c3)OCO4)c2)C1 (stereo not shown) [Example 46, 4-[3-{6-[3-Benzo[1,3]dioxol-5-yl-5-(3-methyl-piperidine-1-carbonyl)-phenoxy]-hexyl}-2-(2-carboxy-ethyl)-phenoxy]-butyric acid]	7.46
O=C(O)CCCOc1cccc(CCCCCCOc2cc(C(=O)NC3CCC3)cc(-c3cccc(F)c3)c2)c1CCC(=O)O [Example 67, 4-{2-(2-Carboxy-ethyl)-3-[6-(5-cyclobutylcarbamoyl-3′-fluoro-biphenyl-3-yloxy)-hexyl]-phenoxy}-butyric acid]	52.2
CN(C)C(=O)c1cc(OCCCCCCc2cccc(OCCCC(=O)O)c2CCC(=O)O)cc(-c2ccc3c(c2)OCO3)c1 [Example 53, 4-[3-[6-(3-Benzo[1,3]dioxol-5-yl-5-dimethylcarbamoyl-phenoxy)-hexyl]-2-(2-carboxy-ethyl)-phenoxy]-butyric acid]	0.1
O=C(O)CCCOc1cccc(CCCCCCOc2cc(C(=O)NC3CCC3)cc(-c3ccc4c(c3)OCO4)c2)c1CCC(=O)O [Example 61, 4-[3-[6-(3-Benzo[1,3]dioxol-5-yl-5-cyclobutylcarbamoyl-phenoxy)-hexyl]-2-(2-carboxy-ethyl)-phenoxy]-butyric acid]	0.21
O=C(O)CCCOc1cccc(CCCCCCOc2cc(C(=O)NCc3ccccc3)cc(-c3c(F)cccc3F)c2)c1CCC(=O)O [Example 5, 4-[3-[6-(5-Benzylcarbamoyl-2′,6′-difluoro-biphenyl-3-yloxy)-hexyl]-2-(2-carboxy-ethyl)-phenoxy]-butyric acid]	299
CN1CCN(C(=O)c2cc(OCCCCCCc3cccc(OCCCC(=O)O)c3CCC(=O)O)cc(-c3ccccc3)c2)CC1 [Example 28, 4-(2-(2-Carboxy-ethyl)-3-{6-[5-(4-methyl-piperazine-1-carbonyl)-biphenyl-3-yloxy]-hexyl}-phenoxy)-butyric acid]	0.22
Cc1cscc1-c1cc(OCCCCCCc2cccc(OCCCC(=O)O)c2CCC(=O)O)cc(C(=O)N2CCN(C)CC2)c1 [Example 24, 4-(2-(2-Carboxy-ethyl)-3-{6-[3-(4-methyl-piperazine-1-carbonyl)-5-(4-methyl-thiophen-3-yl)-phenoxy]-hexyl}-phenoxy)-butyric acid]	47.3
CN1CCCN(C(=O)c2cc(OCCCCCCc3cccc(OCCCC(=O)O)c3CCC(=O)O)cc(-c3ccc4c(c3)OCO4)c2)CC1 [Example 36, 4-[3-{6-[3-Benzo[1,3]dioxol-5-yl-5-(4-methyl-[1,4]diazepane-1-carbonyl)-phenoxy]-hexyl}-2-(2-carboxy-ethyl)-phenoxy]-butyric acid]	0.14
NC(=O)c1cc(OCCCCCCc2cccc(OCCCC(=O)O)c2CCC(=O)O)cc(-c2ccc3c(c2)OCO3)c1 [Example 55, 4-[3-[6-(3-Benzo[1,3]dioxol-5-yl-5-carbamoyl-phenoxy)-hexyl]-2-(2-carboxy-ethyl)-phenoxy]-butyric acid]	0.2
O=C(O)CCCOc1cccc(CCCCCCOc2cc(C(=O)N3CCNCC3)cc(-c3ccc4c(c3)OCO4)c2)c1CCC(=O)O [Example 44, 4-[3-{6-[3-Benzo[1,3]dioxol-5-yl-5-(piperazine-1-carbonyl)-phenoxy]-hexyl}-2-(2-carboxy-ethyl)-phenoxy]-butyric acid]	0.08
O=C(O)CCCOc1cccc(CCCCCCOc2cc(C(=O)N3CCCCC3)cc(-c3ccc4c(c3)OCO4)c2)c1CCC(=O)O [Example 42, 4-[3-{6-[3-Benzo[1,3]dioxol-5-yl-5-(piperidine-1-carbonyl)-phenoxy]-hexyl}-2-(2-carboxy-ethyl)-phenoxy]-butyric acid]	0.21

The next lines start with the values.

IC50 [nM]	SMILES
2.41	CNC(=O)c1cc(OCCCCCCc2cccc(OCCCC(=O)O)c2CCC(=O)O)cc(-c2ccc3c(c2)OCCO3)c1 [Example 77, 4-(2-(2-Carboxy-ethyl)-3-{6-[3-(2,3-dihydro-benzo[1,4]dioxin-6-yl)-5-methylcarbamoyl-phenoxy]-hexyl}-phenoxy)-butyric acid]
0.79	Cc1ccc(-c2cc(OCCCCCCc3cccc(OCCCC(=O)O)c3CCC(=O)O)cc(C(=O)N(C)C)c2)cc1F [Example 105, 4-{2-(2-Carboxy-ethyl)-3-[6-(5-dimethylcarbamoyl-3′-fluoro-4′-methyl-biphenyl-3-yloxy)-hexyl]-phenoxy}-butyric acid]
0.28	CN(C)C(=O)c1cc(OCCCCCCc2cccc(OCCCC(=O)O)c2CCC(=O)O)cc(-c2ccsc2)c1 [Example 85, 4-{2-(2-Carboxy-ethyl)-3-[6-(3-dimethylcarbamoyl-5-thiophen-3-yl-phenoxy)-hexyl]-phenoxy}-butyric acid]
15.6	CN(C)C(=O)c1cc(C#CCCCCCc2cccc(OCCCC(=O)O)c2CCC(=O)O)cc(-c2ccc(O)cc2)c1 [Example 122, 4-{2-(2-Carboxy-ethyl)-3-[7-(5-dimethylcarbamoyl-4′-hydroxy-biphenyl-3-yl)-hept-6-ynyl]-phenoxy}-butyric acid]
0.24	Cc1ccc(-c2cc(OCCCCCCc3cccc(OCCCC(=O)O)c3CCC(=O)O)cc(C(=O)N(C)C)c2)cc1 [Example 112, 4-{2-(2-Carboxy-ethyl)-3-[6-(5-dimethylcarbamoyl-4′-methyl-biphenyl-3-yloxy)-hexyl]-phenoxy}-butyric acid]
19.5	CN1CCN(C(=O)c2cc(CCCCCCCc3cccc(OCCCC(=O)O)c3CCC(=O)O)cc(-c3ccccc3)c2)CC1 [Example 118, 4-(2-(2-Carboxy-ethyl)-3-{7-[5-(4-methyl-piperazine-1-carbonyl)-biphenyl-3-yl]-heptyl}-phenoxy)-butyric acid]
0.25	CCN(C)C(=O)c1cc(OCCCCCCc2cccc(OCCCC(=O)O)c2CCC(=O)O)cc(-c2ccc3c(c2)OCO3)c1 [Example 73, 4-[3-{6-[3-Benzo[1,3]dioxol-5-yl-5-(ethyl-methyl-carbamoyl)-phenoxy]-hexyl}-2-(2-carboxy-ethyl)-phenoxy]-butyric acid]
